Laboratory results as given in PubChem BioAssay (NCI).
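Where inhibition never reached the appropriate level, the endpoint shown equals the highest concentration tested. Otherwise, values were interpolated linearly from a five-concentration, 48-hour dose response in 96-well plates. TGI is the concentration that stops growth completely.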

Assays:
Test in all cases: NCI anticancer screen, dose series, 48 h
[1] = system: SF-268 CNS
[2] = system: XF 498 CNS
[3] = system: SNB-78 CNS
[4] = system: SR leukemia
[5] = system: HOP-62 NSCLC
[6] = system: SN12C renal
[7] = system: OVCAR-3 ovarian
[8] = system: M19-MEL melanoma
[9] = system: KM12 colon
[10] = system: A498 renal
[11] = system: A549 NSCLC
[12] = system: TK-10 renal
[13] = system: DLD-1 colon
[14] = system: KM20L2 colon
[15] = system: HL-60(TB) leukemia
[16] = system: OVCAR-5 ovarian
[17] = system: LOX IMVI melanoma
[18] = system: DMS 273 small cell lung
[19] = system: SK-MEL-2 melanoma
[20] = system: HCC-2998 colon
[21] = system: RXF-631 renal
[22] = system: SNB-75 CNS
[23] = system: ACHN renal
[24] = system: LXFL 529 NSCLC
[25] = system: DMS 114 small cell lung
[26] = system: HOP-18 NSCLC
[27] = system: MALME-3M melanoma
[28] = system: M14 melanoma
[29] = system: COLO 205 colon
[30] = system: 786-0 renal
[31] = system: HCT-116 colon
[32] = system: RXF 393 renal
[33] = system: OVCAR-4 ovarian
[34] = system: NCI-H460 lung
[35] = system: SK-MEL-28 melanoma
[36] = system: SF-539 CNS
[37] = system: RPMI-8226 leukemia
[38] = system: NCI-H23 lung
[39] = system: UACC-257 melanoma
[40] = system: UACC-62 melanoma
[41] = system: SNB-19 CNS
[42] = system: SK-OV-3 ovarian
[43] = system: UO-31 renal
[44] = system: HT29 colon
[45] = system: NCI-H522 lung
[46] = system: OVCAR-8 ovarian
[47] = system: SW-620 colon
[48] = system: U251 CNS
[49] = system: SK-MEL-5 melanoma
[50] = system: NCI-H226 lung
[51] = system: HCT-15 colon
[52] = system: EKVX NSCLC
[53] = system: MOLT-4 leukemia
[54] = system: HOP-92 NSCLC
[55] = system: CAKI-1 renal
[56] = system: SF-295 CNS
[57] = system: K-562 leukemia
[58] = system: IGROV1 ovarian
[59] = system: CCRF-CEM leukemia

Molecule `COc1cc2c(cc1OC)C1[C@@H](c3ccccc3)OCN1CC2` (some centres not stated) has a TGI [1] of over 100 µM, a TGI [2] of over 100 µM and a TGI [3] of over 100 µM. It also gave a TGI [4] of over 100 µM, a TGI [5] of over 100 µM and a TGI [6] of over 100 µM. The TGI [7] was over 100 µM, the TGI [8] was over 100 µM and the TGI [9] was over 100 µM. For the same molecule, the TGI [10] was over 100 µM, the TGI [11] was over 100 µM and the TGI [12] was over 100 µM. It also gave a TGI [13] of over 100 µM, a TGI [14] of over 100 µM and a TGI [15] of over 89.8 µM. The TGI [16] was over 100 µM, the TGI [17] was over 100 µM and the TGI [18] was over 100 µM. The TGI [19] was over 100 µM, the TGI [20] was over 100 µM and the TGI [21] was over 100 µM. The TGI [22] was over 100 µM, the TGI [23] was over 100 µM and the TGI [24] was over 100 µM. For the same molecule, the TGI [25] was over 100 µM, the TGI [26] was over 100 µM and the TGI [27] was over 100 µM. It also gave a TGI [28] of over 100 µM, a TGI [29] of over 100 µM and a TGI [30] of over 100 µM. For the same molecule, the TGI [31] was over 100 µM, the TGI [32] was over 100 µM and the TGI [33] was over 100 µM. For the same molecule, the TGI [34] was over 100 µM, the TGI [35] was over 100 µM and the TGI [36] was over 100 µM. For the same molecule, the TGI [37] was 89.9 µM, the TGI [38] was over 100 µM and the TGI [39] was over 100 µM. The TGI [40] was over 100 µM, the TGI [41] was over 100 µM and the TGI [42] was over 100 µM. It also gave a TGI [43] of over 100 µM, a TGI [44] of over 100 µM and a TGI [45] of over 100 µM. It also gave a TGI [46] of over 100 µM, a TGI [47] of over 100 µM and a TGI [48] of over 100 µM. For the same molecule, the TGI [49] was over 100 µM, the TGI [50] was over 100 µM and the TGI [51] was over 100 µM. The TGI [52] was over 100 µM, the TGI [53] was over 100 µM and the TGI [54] was over 100 µM. The TGI [55] was over 100 µM, the TGI [56] was over 100 µM and the TGI [57] was over 63.1 µM. For the same molecule, the TGI [58] was over 100 µM and the TGI [59] was over 100 µM.
For `COc1cc(OC)c2c(c1)C(=O)C(CC1(C)OCCCO1)=CC2=O`, the TGI [1] was 26.9 µM, the TGI [2] was 18.4 µM and the TGI [3] was 26.6 µM. It also gave a TGI [4] of 7.2 µM, a TGI [5] of 33.4 µM and a TGI [6] of 27.2 µM. For the same molecule, the TGI [7] was 21.4 µM, the TGI [8] was 13.9 µM and the TGI [9] was 28.5 µM. The TGI [10] was 32.3 µM, the TGI [11] was 34.4 µM and the TGI [12] was 25.1 µM. For the same molecule, the TGI [13] was 17.4 µM, the TGI [14] was 27.7 µM and the TGI [15] was 7.88 µM. It also gave a TGI [16] of 30.6 µM, a TGI [17] of 12.8 µM and a TGI [18] of 22.5 µM. The TGI [19] was 30.1 µM, the TGI [20] was 32.2 µM and the TGI [21] was 44.5 µM. The TGI [22] was 25.3 µM, the TGI [23] was 21.6 µM and the TGI [24] was 18.7 µM. For the same molecule, the TGI [25] was 15.8 µM, the TGI [26] was 25.7 µM and the TGI [27] was 20.5 µM. It also gave a TGI [28] of 26 µM, a TGI [29] of 27.5 µM and a TGI [30] of 21.5 µM. The TGI [31] was 17.7 µM, the TGI [32] was 10.4 µM and the TGI [33] was 19.7 µM. The TGI [34] was 34.7 µM, the TGI [35] was 23.8 µM and the TGI [36] was 25.6 µM. It also gave a TGI [37] of 23.3 µM, a TGI [38] of 27 µM and a TGI [39] of 25.9 µM. For the same molecule, the TGI [40] was 16.2 µM, the TGI [41] was 32.4 µM and the TGI [42] was 34.2 µM. For the same molecule, the TGI [43] was 24.1 µM, the TGI [44] was 28.9 µM and the TGI [45] was 10.6 µM. The TGI [46] was 22.5 µM, the TGI [47] was 20.3 µM and the TGI [48] was 31.6 µM. For the same molecule, the TGI [49] was 20.9 µM, the TGI [50] was 36.3 µM and the TGI [51] was 16.3 µM. The TGI [52] was 28.6 µM, the TGI [53] was 30.6 µM and the TGI [54] was 7.73 µM. For the same molecule, the TGI [55] was 18.8 µM, the TGI [56] was 27.8 µM and the TGI [57] was over 69.7 µM. It also gave a TGI [58] of 32.2 µM and a TGI [59] of 15.4 µM.
With `CNc1ccccc1-c1nc2ccccc2c(=O)o1` the TGI [1] was over 100 µM, the TGI [2] was over 100 µM and the TGI [3] was over 100 µM. For the same molecule, the TGI [4] was over 100 µM, the TGI [6] was over 100 µM and the TGI [8] was over 100 µM. The TGI [9] was over 100 µM, the TGI [11] was over 100 µM and the TGI [12] was over 100 µM. For the same molecule, the TGI [13] was over 100 µM, the TGI [14] was over 100 µM and the TGI [15] was over 100 µM. For the same molecule, the TGI [16] was over 100 µM, the TGI [17] was over 100 µM and the TGI [18] was over 100 µM. The TGI [19] was over 100 µM, the TGI [20] was over 100 µM and the TGI [21] was over 100 µM. It also gave a TGI [22] of 97.6 µM, a TGI [23] of over 100 µM and a TGI [24] of over 100 µM. The TGI [25] was over 100 µM, the TGI [26] was over 100 µM and the TGI [27] was over 100 µM. It also gave a TGI [28] of over 100 µM, a TGI [29] of over 100 µM and a TGI [31] of over 100 µM. The TGI [33] was over 100 µM, the TGI [34] was over 100 µM and the TGI [35] was over 100 µM. The TGI [36] was over 100 µM, the TGI [37] was over 100 µM and the TGI [39] was over 100 µM. For the same molecule, the TGI [41] was over 100 µM, the TGI [42] was over 100 µM and the TGI [43] was over 100 µM. The TGI [46] was over 100 µM, the TGI [47] was over 100 µM and the TGI [48] was over 100 µM. The TGI [49] was over 100 µM, the TGI [50] was over 100 µM and the TGI [51] was over 100 µM. For the same molecule, the TGI [52] was over 100 µM, the TGI [53] was over 100 µM and the TGI [55] was over 100 µM. For the same molecule, the TGI [56] was over 100 µM, the TGI [57] was over 100 µM and the TGI [58] was over 100 µM. For the same molecule, the TGI [59] was over 100 µM.
